From ChEMBL document CHEMBL4814069, “Nucleotide analogues containing a pyrrolidine, piperidine or piperazine ring: Synthesis and evaluation of inhibition of plasmodial and human 6-oxopurine phosphoribosyltransferases and in vitro antimalarial activity” (Eur J Med Chem, 2021)

Experiments:
[1] = Cytotoxicity against human HepG2 cells assessed as cell viability at 100 uM incubated for 72 hrs by Celltiter-Glo assay; assay type: cell-based; conditions: read-out: Activity
HeLa S3 = experiment: Cytotoxicity against human HeLa S3 cells assessed as reduction in cell viability at 10 uM incubated for 72 hrs by Celltiter-Glo assay; assay type: cell-based; conditions: hela s3, 72 h
Plasmodium falciparum [2] = experiment: Antimalarial activity against asexual stage of chloroquine-resistant Plasmodium falciparum W2 infected in human erythrocytes assessed as parasite growth inhibition measured after 96 hrs by [3H]-hypoxanthine incorporation assay; assay type: functional, organism-based
[3] = Cytotoxicity against human NHDF cells assessed as cell viability at 100 uM incubated for 72 hrs by Celltiter-Glo assay; assay type: cell-based; conditions: read-out: Activity
HepG2 [4] = experiment: Cytotoxicity against human HepG2 cells assessed as reduction in cell viability at 10 uM incubated for 72 hrs by Celltiter-Glo assay; assay type: cell-based; conditions: hepg2, 72 h
HepG2 [5] = experiment: Cytotoxicity against human HepG2 cells assessed as reduction in cell viability at 50 uM incubated for 72 hrs by Celltiter-Glo assay; assay type: cell-based; conditions: hepg2, 72 h
NHDF [6] = experiment: Cytotoxicity against human NHDF cells assessed as reduction in cell viability at 10 uM incubated for 72 hrs by Celltiter-Glo assay; assay type: cell-based
HL-60 = experiment: Cytotoxicity against human HL60 cells assessed as reduction in cell viability at 10 uM incubated for 72 hrs by Celltiter-Glo assay; assay type: cell-based; conditions: hl-60, 72 h
CCRF-CEM = experiment: Cytotoxicity against human CCRF-CEM cells assessed as reduction in cell viability at 10 uM incubated for 72 hrs by Celltiter-Glo assay; assay type: cell-based
NHDF [7] = experiment: Cytotoxicity against human NHDF cells assessed as reduction in cell viability at 50 uM incubated for 72 hrs by Celltiter-Glo assay; assay type: cell-based
Plasmodium falciparum [8] = experiment: Antimalarial activity against asexual stage of chloroquine-sensitive Plasmodium falciparum D6 infected in human erythrocytes assessed as inhibition of parasite growth measured after 96 hrs by [3H]-hypoxanthine incorporation assay; assay type: functional, organism-based
[9] = Inhibition of Plasmodium vivax HGPRT using PRib-PP as substrate by Hanes-plot based method
[10] = Selectivity index, ratio of Ki for human HGPRT to Ki for Plasmodium falciparum HGXPRT; assay type: toxicity
[11] = target: T1, Hypoxanthine-guanine phosphoribosyltransferase (Homo sapiens, UniProt P00492); experiment: Inhibition of human HGPRT using PRib-PP as substrate by Hanes-plot based method
T1 sequence (P00492 whole entry): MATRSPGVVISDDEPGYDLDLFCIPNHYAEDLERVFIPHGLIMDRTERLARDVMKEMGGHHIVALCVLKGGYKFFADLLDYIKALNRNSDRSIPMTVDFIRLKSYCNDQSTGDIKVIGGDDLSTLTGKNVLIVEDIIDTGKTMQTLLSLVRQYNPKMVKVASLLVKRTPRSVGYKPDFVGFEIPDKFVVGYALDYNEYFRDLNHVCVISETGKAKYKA

[12] = Inhibition of Plasmodium falciparum HGXPRT using PRib-PP as substrate by Hanes-plot based method
[13] = Selectivity index, ratio of Ki for human HGPRT to Ki for Plasmodium vivax HGPRT; assay type: toxicity
HepG2 [14] = experiment: Cytotoxicity against human HepG2 cells assessed as reduction in cell viability incubated for 72 hrs by Celltiter-Glo assay; assay type: cell-based; conditions: HepG2, 72 h
[15] = Selectivity for antimalarial activity against Plasmodium falciparum over cytotoxicity against human HepG2 cells; assay type: toxicity, cell-based; conditions: read-out: Selectivity Index
NHDF [16] = experiment: Cytotoxicity against human NHDF cells assessed as reduction in cell viability incubated for 72 hrs by Celltiter-Glo assay; assay type: cell-based
[17] = Selectivity for antimalarial activity against Plasmodium falciparum over cytotoxicity against human NHDF cells; assay type: toxicity, cell-based; conditions: read-out: Selectivity Index

| Structure (SMILES) | viability at 72 h, 100 µM [1] [%] | Activity (HeLa S3) | IC50 (Plasmodium falciparum [2]) [µM] | viability at 72 h, 100 µM [3] [%] | Activity (HepG2 [4]) | Activity (HepG2 [5]) | Activity (NHDF [6]) | Activity (HL-60) | Activity (CCRF-CEM) | Activity (NHDF [7]) | IC50 (Plasmodium falciparum [8]) [µM] | Ki [9] [µM] | Ratio Ki [10] | Ki [11] [µM] | Ki [12] [µM] | Ratio Ki [13] | IC50 (HepG2 [14]) [µM] | selectivity ratio [15] | IC50 (NHDF [16]) [µM] | selectivity ratio [17] |
| --- | --- | --- | --- | --- | --- | --- | --- | --- | --- | --- | --- | --- | --- | --- | --- | --- | --- | --- | --- | --- |
| CCOC(=O)[C@H](Cc1ccccc1)NP(=O)(CCN1CCC[C@@H]1Cn1cnc2c(=O)[nH]c(N)nc21)N[C@@H](Cc1ccccc1)C(=O)OCC | 98 | Non-Toxic | 8 | 103 | Non-Toxic | Non-Toxic | Non-Toxic | Non-Toxic | Non-Toxic | Non-Toxic | 12.1 |  |  |  |  |  |  |  |  |  |
| CCOC(=O)[C@H](Cc1ccccc1)NP(=O)(CCN1CCC[C@@H]1Cn1cnc2c(=O)[nH]cnc21)N[C@@H](Cc1ccccc1)C(=O)OCC | 98 | Non-Toxic | 9.1 | 106 | Non-Toxic | Non-Toxic | Non-Toxic | Non-Toxic | Non-Toxic | Non-Toxic | 7.1 |  |  |  |  |  |  |  |  |  |
| O=c1[nH]cnc2c1ncn2CC1CN(CCP(=O)([O-])[O-])CCN1CCP(=O)([O-])[O-].[Na+].[Na+].[Na+].[Na+] (stereo not given) |  |  |  |  |  |  |  |  |  |  |  | 37 | 0.14 | 0.43 | 3 | 0.012 |  |  |  |  |
| CCOC(=O)[C@H](Cc1ccccc1)NP(=O)(CN1CCCC(Cn2cnc3c(=O)[nH]cnc32)C1)N[C@@H](Cc1ccccc1)C(=O)OCC (stereo not given in full) | 105 | Non-Toxic | 11.7 | 107 | Non-Toxic | Non-Toxic | Non-Toxic | Non-Toxic | Non-Toxic | Non-Toxic | 7.9 |  |  |  |  |  |  |  |  |  |
| O=c1[nH]cnc2c1ncn2CC1CCCN(CP(=O)([O-])[O-])C1.[Na+].[Na+] (stereo not given) |  |  |  |  |  |  |  |  |  |  |  | 72 | > 2.9 | > 50 | 17 | > 0.7 |  |  |  |  |
| O=c1[nH]cnc2c1ncn2C[C@H]1CCCN1CCP(=O)([O-])[O-].[Na+].[Na+] |  |  |  |  |  |  |  |  |  |  |  | > 50 | > 3.3 | > 50 | 15 |  |  |  |  |  |
| Nc1nc2c(ncn2CCN(CCOCCP(=O)(O)O)CCP(=O)(O)O)c(=O)[nH]1 |  |  |  |  |  |  |  |  |  |  |  | 0.03 | 0.45 |  | 0.19 | 2.725 |  |  |  |  |
| CCOC(=O)[C@H](Cc1ccccc1)NP(=O)(CN1CCCC(Cn2cnc3c(=O)[nH]c(N)nc32)C1)N[C@@H](Cc1ccccc1)C(=O)OCC (stereo not given in full) | 103 | Non-Toxic | 3.9 | 103 | Non-Toxic | Non-Toxic | Non-Toxic | Non-Toxic | Non-Toxic | Non-Toxic | 11.7 |  |  |  |  |  |  |  |  |  |
| Nc1nc2c(ncn2[C@H]2CCN(C(=O)CP(=O)(O)O)C2)c(=O)[nH]1 |  |  |  |  |  |  |  |  |  |  |  | 2.6 | 182 | 73 | 0.4 | 28 |  |  |  |  |
| Nc1nc2c(ncn2C[C@@H]2CCCN2CCP(=O)([O-])[O-])c(=O)[nH]1.[Na+].[Na+] |  |  |  |  |  |  |  |  |  |  |  | 20 | 1.8 | 9 | 5 | 0.45 |  |  |  |  |
| O=c1[nH]cnc2c1ncn2C[C@@H]1CCCN1CCP(=O)([O-])[O-].[Na+].[Na+] |  |  |  |  |  |  |  |  |  |  |  | > 50 | > 1.1 | > 50 | 44 |  |  |  |  |  |
| CCOC(=O)[C@H](Cc1ccccc1)NP(=O)(CCN1CCC[C@H]1Cn1cnc2c(=O)[nH]cnc21)N[C@@H](Cc1ccccc1)C(=O)OCC | 91 | Non-Toxic | 6.3 | 117 | Non-Toxic | Non-Toxic | Non-Toxic | Non-Toxic | Non-Toxic | Non-Toxic | 4.1 |  |  |  |  |  | > 250 | > 29 | 184 | > 29 |
| O=c1[nH]cnc2c(C3=NCCN3CCCP(=O)(O)O)c[nH]c12 |  |  |  |  |  |  |  |  |  |  |  | 6 | > 16 | > 74 | 4.7 | > 12 |  |  |  |  |
| CCOC(=O)[C@H](Cc1ccccc1)NP(=O)(CCN1CCN(CP(=O)(N[C@@H](Cc2ccccc2)C(=O)OCC)N[C@@H](Cc2ccccc2)C(=O)OCC)CC1Cn1cnc2c(=O)[nH]c(N)nc21)N[C@@H](Cc1ccccc1)C(=O)OCC (stereo not given in full) | 104 | Non-Toxic | 32.4 | 14 | Non-Toxic | Non-Toxic | Non-Toxic | Non-Toxic | Non-Toxic | Non-Toxic | 55.4 |  |  |  |  |  |  |  |  |  |
| Nc1nc2c(ncn2CC2CN(CCP(=O)([O-])[O-])CCN2CCP(=O)([O-])[O-])c(=O)[nH]1.[Na+].[Na+].[Na+].[Na+] (stereo not given) |  |  |  |  |  |  |  |  |  |  |  | 6 | 0.075 | 0.15 | 2 | 0.025 |  |  |  |  |
| CCOC(=O)[C@H](Cc1ccccc1)NP(=O)(CCN1CCN(CP(=O)(N[C@@H](Cc2ccccc2)C(=O)OCC)N[C@@H](Cc2ccccc2)C(=O)OCC)CC1Cn1cnc2c(=O)[nH]cnc21)N[C@@H](Cc1ccccc1)C(=O)OCC (stereo not given in full) | 82 | Non-Toxic | 2.7 | 3 | Non-Toxic | Non-Toxic | Non-Toxic | Non-Toxic | Non-Toxic | Non-Toxic | 5.1 |  |  |  |  |  |  |  |  |  |
| Nc1nc2c(ncn2C[C@H]2CCCN2CCP(=O)([O-])[O-])c(=O)[nH]1.[Na+].[Na+] |  |  |  |  |  |  |  |  |  |  |  | 39 | > 1.7 | > 50 | 30 | > 1.3 |  |  |  |  |
| CCOC(=O)[C@H](Cc1ccccc1)NP(=O)(CCN1CCC[C@H]1Cn1cnc2c(=O)[nH]c(N)nc21)N[C@@H](Cc1ccccc1)C(=O)OCC | 98 | Non-Toxic | 2.5 | 97 | Non-Toxic | Non-Toxic | Non-Toxic | Non-Toxic | Non-Toxic | Non-Toxic | 7.2 |  |  |  |  |  | > 250 | > 35 | 306 | > 35 |
| Nc1nc2c(ncn2CC2CCCN(CP(=O)([O-])[O-])C2)c(=O)[nH]1.[Na+].[Na+] (stereo not given) |  |  |  |  |  |  |  |  |  |  |  | 29 | 3.5 | 7 | 2 | 0.24 |  |  |  |  |
| O=c1[nH]cnc2c1ncn2CCN(CCOCCP(=O)(O)O)CCP(=O)(O)O |  |  |  |  |  |  |  |  |  |  |  | 0.04 |  |  | 0.2 |  |  |  |  |  |
